Laboratory results as given in publication PMC7848973, “In Vivo Efficacy and Metabolism of the Antimalarial Cycleanine and Improved In Vitro Antiplasmodial Activity of Semisynthetic Analogues” (Antimicrobial Agents and Chemotherapy, 2021).
Like-named read-outs stand apart in the source and are kept apart here. Marks after values point to notes of the source that are not given here.

Key:
[1] = tested on: P. falciparum Dd2 chloroquine-resistant strain; test: In vitro antiplasmodial activity, SYBR green I fluorescence assay; format: cell-based, Plasmodium falciparum
Experimental: Normalized fluorescence signals were measured against controls with 1% DMSO (100% growth) and after exposure to a supralethal concentration (10 μM) of chloroquine (0% growth). Determination of the 50% inhibitory concentration (IC50) was performed from a log concentration versus the mean normalized fluorescence signal curve using GraphPad Prism software (v5.0). Each biological replicate consisted of three technical repeats, with three independent biological replicates performed.

[2] = tested on: chloroquine-resistant P. falciparum strain W2; conditions: cited from earlier work
[3] = tested on: HCT-116 human colon carcinoma cells; conditions: cited from earlier work
[4] = tested on: human ovarian epithelial (HOE) cells; conditions: cited from earlier work
[5] = tested on: Plasmodium berghei; test: Suppressive activity during early P. berghei infection of mice; format: in vivo; conditions: suppressive model; for Parasitemia after infection for 96 h / MST: mean ± SEM, n = 6; for MST: over 30 days
Experimental: (§1) (i) Malaria parasite. Chloroquine-sensitive strains of P. berghei were sourced from the National Institute of Medical Research (NIMER), Yaba Lagos, Nigeria, and maintained by subpassage in mice.
(§2) (ii) Parasite inoculation. Each mouse was inoculated intraperitoneally with about 1 × 10^7 P. berghei parasitized erythrocytes in 0.2 ml of infected blood (5 × 10^7 P. berghei erythrocytes/ml) according to published procedure ([39]).
(§3) (iii) Experimental animals. Female and male Swiss albino mice (18 to 25 g) were obtained from the University of Uyo’s animal house. Before use, mice were kept in cages and acclimatized for 10 days. All mice were kept in cross-ventilated rooms at room temperature. The care and use of mice were performed in accordance with the National Institutes of Health Guide for the Care and Use of Laboratory Animals (1996). This investigation was approved by the University of Uyo’s Animal Ethics Committee.
(§4) (v) Drug administration. Cycleanine, chloroquine, and pyrimethamine were prepared in water and administered orally with the aid of a stainless metallic feeding cannula.
(vi) Suppressive activity of cycleanine. The schizontocidal activity of cycleanine and chloroquine against early P. berghei infection in mice was measured according to an established protocol ([25], [41], [42]). On the first day, 20 to 24 mice were infected with the parasite and randomly separated into four groups. The mice in groups 1 and 2 were given 25 and 50 mg/kg of cycleanine, respectively, those in group 3 were given 5 mg/kg of chloroquine (positive control), and those in group 4 were given distilled water (10 ml/kg, negative control) for four consecutive days. Thin films were made from the tail blood on the fifth day. Parasitized erythrocytes were counted in stained films (Giemsa stain) under a microscope. The average suppression of parasitemia (%) was calculated as follows: average % parasitemia positive control−average % parasitemia negative control/average % parasitemia negative control×100
The MST (in days) of the mice in each group was determined over a period of 30 days.

[6] = tested on: Plasmodium berghei; test: Curative activity during established P. berghei infection of mice; format: in vivo; conditions: curative model, n = 6; for MST: over 30 days
Experimental: as §1, §2, §3, §4
(viii) Curative activity of cycleanine. The curative activity of cycleanine was assessed according to a method described previously ([42], [44]). P. berghei was injected intraperitoneally into another 24 mice on the first day. Three days later, the mice were also separated into four groups of six mice per group. Groups 1 and 2 were administered different doses of cycleanine, 25 and 50 mg/kg, respectively, group 3 was given 5 mg/kg chloroquine (positive control), and group 4 was given 10 ml/kg distilled water (negative control). Cycleanine and chloroquine were given once a day for 5 days. Mouse tail blood samples were collected on each day, and Giemsa-stained thin smears were prepared to determine the parasitemia level. The MST of the mice in each group was determined over a period of 30 days.

[7] = tested on: P. falciparum chloroquine-sensitive strain D6; conditions: read-out: IC50 against P. falciparum strain D6; cited from earlier work
[8] = tested on: human oral epidermoid carcinoma (KB) cells; design: method as in PMID 9917283; conditions: cited from earlier work
[9] = tested on: Plasmodium berghei; test: Prophylactic activity in P. berghei infection of mice; format: in vivo; conditions: prophylactic model; for Parasitemia level after infection for 72 h / MST: mean ± SEM, n = 6; for MST: over 30 days
Experimental: as §1, §2, §3, §4
(vii) Prophylactic activity of cycleanine. The prophylactic activity of cycleanine was evaluated using a previously described method ([42], [43]). The mice were randomly divided into four groups of six mice per group. Groups 1 and 2 were given 25 and 50 mg/kg of cycleanine, respectively, group 3 was given 1.2 mg/kg of pyrimethamine (positive control), and group 4 was given 10 ml/kg of distilled water (negative control). Administration of cycleanine or the drug continued for three consecutive days. On the fourth day, the mice were inoculated with P. berghei. The parasitemia level was evaluated by blood smears after 3 days. The survival times (days) of the mice were recorded over a period of 30 days, and MST were calculated.

[10] = Acute median lethal dose (LD50) of cycleanine in mice; format: in vivo; conditions: 24 h, intraperitoneal
Experimental: as §3
(iv) Determination of median lethal dose (LD50) of cycleanine. The median lethal dose (LD50) of cycleanine was determined using albino mice by the intraperitoneal (i.p.) route ([40]). Different doses of cycleanine (10 to 5,000 mg/kg) were intraperitoneally administered to groups of three mice each. The mice were monitored for manifestation of physical signs of toxicity, including decrease of motor activity, writhing, decrease of body/limb tone, weakness, and death. The number of deaths in each group within 24 h was recorded. The LD50 value was calculated as the geometrical means of the minimum dose producing 100% mortality and the maximum dose producing 0%.

[11] = tested on: P. falciparum chloroquine-sensitive clone 3D7; design: method as in PMID 26594753; conditions: read-out: IC50 against P. falciparum chloroquine-sensitive clone 3D7; cited from earlier work
[12] = design: method as in earlier work; conditions: mice; cited from earlier work
[13] = Plasmodium falciparum, DD2, read-out: IC50 against P. falciparum strain Dd2
[14] = chloroquine-resistant strain, ref 18, read-out: IC50 against P. falciparum strain W2
[15] = chloroquine-resistant strain, ref 16, read-out: IC50 against P. falciparum strain W2
[16] = 25 mg/kg oral, mean ± SEM, 25 mg/kg
[17] = 50 mg/kg oral, mean ± SEM, 50 mg/kg
[18] = read-out: CC50 against HOE, human ovarian epithelial (HOE) cells
[19] = Plasmodium falciparum, DD2, chloroquine-resistant strain, mean ± SD, n = 3 independent biological repeats, read-out: IC50 against P. falciparum strain Dd2

Q: For `COc1cc2c3c(c1O)Oc1ccc(cc1)C[C@@H]1c4c(cc(OC)c(O)c4Oc4ccc(cc4)C[C@H]3N(C)CC2)CCN1C` [Isochondodendrine (2), isochondodendrine], which IC50 [1, 13] is on record?
A: 6.1 ± 1.3 µM

Q: What about the IC50 [2, 14] of the same molecule?
A: 0.2 µM

Q: What about the CC50 [3] of the same molecule?
A: 29 µM

Q: And the CC50 [4]?
A: 10.5 ± 1.2 µM

Q: Which IC50 [1, 13] does the source give for `CCN(CC)CCCC(C)Nc1ccnc2cc(Cl)ccc12` (centres unmarked) [Chloroquine, reference compound] here?
A: 0.18 ± 0.03 µM

Q: And the “Suppression of parasitemia at 96 h” value ([5]; 5 mg/kg per day oral)?
A: 94.0%

Q: What about the “Parasitemia after infection for 96 h” value ([5]; 5 mg/kg per day oral) of the same molecule?
A: 2.0 ± 0.8^b %

Q: And the MST ([5]; 5 mg/kg per day oral)?
A: 30.0 ± 0.0^b days

Q: What about the “Parasitaemia Day 3” value ([6]; 5 mg/kg oral, mean ± SEM) of the same molecule?
A: 12.4 ± 0.5%

Q: What about the “Parasitaemia Day 4” value ([6]; 5 mg/kg oral, mean ± SEM) of the same molecule?
A: 2.1 ± 0.2%

Q: What about the “Parasitaemia Day 6” value ([6]; 5 mg/kg oral) of the same molecule?
A: 0.0%

Q: What about the “Parasitaemia Day 7” value ([6]; 5 mg/kg oral) of the same molecule?
A: 0.0%

Q: What about the “Parasitaemia Day 5” value ([6]; 5 mg/kg oral, 5 mg/kg) of the same molecule?
A: 0%

Q: What about the MST ([6]; 5 mg/kg oral, mean ± SEM, 5 mg/kg) of the same molecule?
A: 30 days

Q: What about the IC50 [2, 15] of the same molecule?
A: 0.135 µM

Q: And the IC50 [7]?
A: 0.006 µM

Q: And the “CC50 against cancer cell line KB” value [8]?
A: 33.7^b μM

Q: With `CCc1nc(N)nc(N)c1-c1ccc(Cl)cc1` [Pyrimethamine, reference compound] as the molecule, how does the “Suppression of parasitemia level after infection for 72 h” value (“Suppression of parasitemia level” below) ([9]; 1.2 mg/kg per day oral) read?
A: 76.2%

Q: What about the “Parasitemia level after infection for 72 h” value ([9]; 1.2 mg/kg per day oral) of the same molecule?
A: 4.8 ± 1.1^b %

Q: And the MST ([9]; 1.2 mg/kg per day oral)?
A: 29.8 ± 0.2^b days

Q: With cycleanine as the molecule, how does the IC50 ([1]; chloroquine-resistant strain, mean ± SD, n = 3 independent biological repeats, read-out: IC50 against P. falciparum strain Dd2) read?
A: 17.7 ± 2 µM

Q: And the “Acute median lethal dose (LD50)” value [10]?
A: 4500 mg/kg

Q: And the “Suppression of parasitemia at 96 h” value ([5]; 25 mg/kg per day oral)?
A: 44.7%

Q: And the “Parasitemia after infection for 96 h” value ([5]; 25 mg/kg per day oral)?
A: 15.7 ± 1.8^b %

Q: And the MST ([5]; 25 mg/kg per day oral)?
A: 24.7 ± 1.1^b days

Q: And the “Suppression of parasitemia at 96 h” value ([5]; 50 mg/kg per day oral)?
A: 86.5%

Q: What about the “Parasitemia after infection for 96 h” value ([5]; 50 mg/kg per day oral) of the same molecule?
A: 3.8 ± 0.7^b %

Q: What about the MST ([5]; 50 mg/kg per day oral) of the same molecule?
A: 28.2 ± 0.9^b days

Q: What about the “Suppression of parasitemia level” value ([9]; 25 mg/kg per day oral) of the same molecule?
A: 43.4%

Q: And the “Parasitemia level after infection for 72 h” value ([9]; 25 mg/kg per day oral)?
A: 11.5 ± 0.9^b %

Q: And the MST ([9]; 25 mg/kg per day oral)?
A: 23.0 ± 0.6^b days

Q: What about the “Suppression of parasitemia level” value ([9]; 50 mg/kg per day oral) of the same molecule?
A: 59.0%

Q: What about the “Parasitemia level after infection for 72 h” value ([9]; 50 mg/kg per day oral) of the same molecule?
A: 8.3 ± 1.0^b %

Q: And the MST ([9]; 50 mg/kg per day oral)?
A: 24.5 ± 0.6^b days

Q: What about the “Parasitaemia Day 3” value ([6]; 25 mg/kg oral, mean ± SEM) of the same molecule?
A: 12.7 ± 1.7%

Q: And the “Parasitaemia Day 5” value [6, 16]?
A: 13.3%

Q: What about the MST [6, 16] of the same molecule?
A: 21 days

Q: What about the “Parasitaemia Day 3” value ([6]; 50 mg/kg oral, mean ± SEM) of the same molecule?
A: 15.5 ± 0.9%

Q: What about the “Parasitaemia Day 6” value ([6]; 50 mg/kg oral, mean ± SEM) of the same molecule?
A: 6.0 ± 1.0%

Q: And the “Parasitaemia Day 7” value ([6]; 50 mg/kg oral, mean ± SEM)?
A: 3.7 ± 1.1%

Q: And the “Parasitaemia Day 5” value [6, 17]?
A: 10.5%

Q: And the MST [6, 17]?
A: 25 days

Q: And the IC50 [2, 15]?
A: 0.25 µM

Q: And the IC50 [2, 14]?
A: 4.5 µM

Q: And the IC50 [7]?
A: 0.07 µM

Q: And the “CC50 against cancer cell line KB” value [8]?
A: > 33.7 µM

Q: And the IC50 [11]?
A: 0.08 µM

Q: And the LD50 [12]?
A: 1100 mg/kg

Q: And the CC50 ([3]; read-out: CC50 against cancer cell line HCT, HCT-116 human colon carcinoma cells)?
A: 531 µM

Q: And the CC50 [4, 18]?
A: 35 ± 0.1 µM

Q: With `COc1cc2c3c(c1OC)Oc1ccc(cc1)C[C@H]1c4c(c(CN(C)C)c(OC)c(OC)c4Oc4ccc(cc4)C[C@@H]3N(C)CC2)CCN1C` [5-[(Dimethylamino)methyl]cycleanine (4), 5-[(Dimethylamino)methyl]cycleanine] as the molecule, how does the IC50 [1, 19] read?
A: 0.7 ± 0.1 µM

Q: What about the CC50 [4, 18] of the same molecule?
A: 10 ± 0.2 µM

Q: For `COc1cc2c3c4c1Oc1cc5c(cc1O4)C(Cc1ccc(O)c(c1)Oc1ccc(cc1)CC3NCC2)N(C)CC5` (centres unmarked) [2′-Norcocsuline (3), 2′-norcocsuline], which IC50 [1, 19] is on record?
A: 7 ± 1.6 µM

Q: What about the IC50 ([2]; read-out: IC50 against chloroquine-resistant clone W2) of the same molecule?
A: 0.248 µM

Q: What about the IC50 [7] of the same molecule?
A: 0.048 µM

Q: What about the “CC50 against cancer cell line KB” value [8] of the same molecule?
A: 3.8^b μM

Q: And the CC50 [4, 18]?
A: 8 ± 0.2 µM

Q: Which IC50 [1, 19] does the source give for `C#CCNCc1c2c3c(c(OC)c1OC)Oc1ccc(cc1)C[C@H]1c4c(cc(OC)c(OC)c4Oc4ccc(cc4)C[C@@H]3N(C)CC2)CCN1C` [5-[(Propargylamino)methyl]cycleanine (5), 5-[(Propargylamino)methyl]cycleanine] here?
A: 1.8 ± 0.2 µM

Q: What about the CC50 [4, 18] of the same molecule?
A: 32 ± 1.6 µM
